Experimental data: patent US12721870B2 (priority 2021, dated 2026)
Where “and” joins values, the source holds several entries; their conditions need not be identical. Equal values may be shown once.

Assays:
[1] = system: cyclophosphamide (CPP)-induced animal model; test: Thymus and spleen weight in CPP-induced animal model; assay type: in vivo; details: mice
Description: To confirm the immunity-enhancing efficacy of the V5 strain in a cyclophosphamide (CPP)-induced animal model, tests were performed for each concentration of the V5 strain. Cyclophosphamide (CPP) is an anticancer drug widely used for all types of cancers, sarcomas, leukemia, and malignant lymphoma, and is a non-specific immunosuppressant. […] When CPP suppresses immunity, the weight of the thymus, an immune tissue, and the number of thymocytes are reduced, and the spleen weight is increased as a result of a defense mechanism against immunosuppression.
To confirm the effect of the V5 strain on the weight of the thymus and spleen of a CPP-induced animal model, the weight of the thymus and spleen of the animal model was measured.

[2] = system: Th1, Th2, Th17, and Treg cells; test: T cell subset marker mRNA in splenocytes of CPP-induced animal model (qPCR); assay type: in vivo; details: mice, 150 mg/kg CPP only
Description: In addition, RNA was isolated from the splenocytes at 2×10^6 cells/sample using a TRIZOL® reagent (Thermo, US), and cDNA was synthesized using ACCUPOWER® RT PreMix & Master Mix (Bioneer, KO). To confirm changes in differentiation of Th1, Th2, Th17, and Treg cells, T cell subsets, using the synthesized cDNA and ACCUPOWER® GreenStar™ qPCR PreMix (Bioneer, KO), expression levels of TBX21, GATA3, RORγt, IL-17A, Foxp3, and CTLA-4 mRNA in these cells were measured.

[3] = system: natural killer cells (NK cells); test: Cytotoxicity of NK cells from CPP-induced animal model (LDH, YAC-1 cells); details: mice, 150 mg/kg CPP only, YAC-1 cells: splenocytes 1:50, four hours
Description: The test was performed in the following four groups with seven mice per group: a normal control (NC), a group treated with 150 mg/kg of CPP, a group treated with 1×10^9 CFU/mouse (10^9 CFU) ATG-V5 (V5 strain), and a group treated with 1×10^10 CFU/mouse (V5 10^10 CFU) ATG-V5 (V5 strain).
To measure the cytotoxicity of natural killer cells (NK cells), the spleen was isolated from a CPP-induced animal model, and then the tissue was ground to obtain splenocytes. Next, the splenocytes were mixed with YAC-1 cells in a ratio of the YAC-1 cells: the splenocytes of 1:50 and then incubated in a CO2 incubator at 37° C. for four hours. The amount of LDH was measured using an LDH-cell cytotoxicity assay kit.

splenocytes = test: Cell viability of splenocytes from CPP-induced animal model (WST); assay type: in vivo; details: mice, 150 mg/kg CPP only, splenocytes incubated 48 hours
Description: To measure the cell viability of splenocytes, a collection of cells involved in various cellular immunity, splenocytes from each mouse were seeded in a 96-well plate at 1×10^4 cells/well and then incubated in a 37° C. CO2 incubator for 48 hours. Next, the splenocytes were treated with WST to measure cell viability.

[4] = system: cyclophosphamide (CPP)-induced animal model; test: Antibodies in blood of CPP-induced animal model (ELISA); assay type: in vivo; details: mice, 150 mg/kg CPP only, serum ELISA
Description: (§1) The blood of a CPP-induced animal model was reacted at room temperature for two hours and then centrifuged at 4000 rpm for 10 minutes to isolate serum. The secretion amounts of IgG, IgA, and IgM were measured from the isolated serum using an ELISA kit (Thermo, US).

[5] = system: cyclophosphamide (CPP)-induced animal model; test: Cytokines in blood of CPP-induced animal model (ELISA); assay type: in vivo; details: mice, 150 mg/kg CPP only, serum ELISA; tendency
Description: as §1
In addition, enzyme-linked immunosorbent assay (ELISA) for IL-6, IL-2, IL-10, and IL-4 was performed using the serum.

Compound: O=P1(N(CCCl)CCCl)NCCCO1 (stereo not drawn) [CPP, cyclophosphamide]
- Thymus weight ([1]; group treated with 150 mg/kg of CPP only (normal control 0.061 g), 150 mg/kg): 0.03 g and 0.031 g
- Spleen weight ([1]; group treated with 150 mg/kg of CPP only (normal control 0.105 g)): 0.170 g
- Overall number of T cell subsets (mRNA in splenocytes) [2]: suppressing
- Cytotoxicity of NK cells [3]: 144%
- Cell viability of splenocytes (splenocytes): 99.98%
- Secretion amount of IgA in the blood [4]: reduced
- Secretion amount of IgG in the blood [4]: reduced
- Secretion amount of IgM in the blood [4]: failed to cause changes
- Cytokines in the blood (IL-6, IL-2, IL-10, IL-4) [5]: reduced
